Measurements: ChEMBL document CHEMBL4414642, “Buxaustroines A-N, a Series of 17(13→18)abeo-Cycloartenol Triterpenoidal Alkaloids from Buxus austro-yunnanensis and Their Cardioprotective Activities” (J Nat Prod, 2019)
Calls of active or inactive are those of the source. The calls are words filed in the database; no cut-off is given here.

Key:
H9c2 [1] = assay: Cardioprotective activity against rat H9c2 cells assessed as inhibition of doxorubicin-induced reduction in cell viability at 0.5 uM preincubated for 30 mins followed by doxorubicin treatment and measured after 48 hrs by CCK8 assay; assay type: functional, cell-based
H9c2 [2] = assay: Cytotoxicity against rat H9c2 cells at 1 uM after 48 hrs by CCK-8 assay; assay type: cell-based; settings: h9c2, 48 h
H9c2 [3] = assay: Cardioprotective activity against rat H9c2 cells assessed as inhibition of doxorubicin-induced reduction in cell viability at 1 uM preincubated for 30 mins followed by doxorubicin treatment and measured after 48 hrs by CCK8 assay; assay type: functional, cell-based

Row | Structure (SMILES) | Activity (H9c2 [1]) | Activity (H9c2 [2]) | Activity (H9c2 [3])
1 | CCC1=C[C@H]2CC[C@@]34C[C@]35CC[C@H](N(C)C)[C@@H](C)[C@@H]5CC[C@H]4[C@]2(C)CC1=O | Active | Non-Toxic | Active
2 | C=C1[C@@H](NC)CC[C@@]23C[C@]24CCC2=C[C@](O)(CC)C(=O)C[C@@]2(C)[C@@H]4CC[C@@H]13 | – | Non-Toxic | –
3 | CCC1=CC2=CC[C@@]34C[C@]35CC[C@H](NC)C(C)(C)[C@@H]5CC[C@H]4[C@]2(C)CC1=O | Active | Non-Toxic | –
4 | C=C1[C@@H](N(C)C)CC[C@@]23C[C@]24CC[C@]2(O)C[C@H](CC)C(=O)C[C@@]2(C)[C@@H]4CC[C@@H]13 | inactive | Non-Toxic | inactive
5 | C=C1[C@@H](N(C)C)CC[C@@]23C[C@]24CC[C@]2(O)C=C(CC)C(=O)C[C@@]2(C)[C@@H]4CC[C@@H]13 | inactive | Non-Toxic | inactive
6 | C=C1[C@@H](NC)CC[C@@]23C[C@]24CC[C@@H]2C=C(CC)C(=O)C[C@@]2(C)[C@@H]4CC[C@@H]13 | Active | Non-Toxic | –
7 | CCC1=C[C@H]2CC[C@@]34C[C@]35CC[C@H](NC)[C@@H](C)[C@@H]5CC[C@H]4[C@]2(C)CC1=O | Active | Non-Toxic | –
8 | CN[C@@H](C)[C@H]1[C@H](O)C[C@@]2(C)[C@@H]3CC[C@H]4C(C)(C)[C@@H](NC)CC[C@]45C[C@@]35CC[C@]12C | – | Non-Toxic | Active
9 | CCC1=C[C@H]2CC[C@@]34C[C@]35CC[C@H](NC)C(C)(C)[C@@H]5C=C[C@H]4[C@]2(C)CC1=O | Active | Non-Toxic | –
10 | C=C1[C@@H](NC)CC[C@@]23C[C@]24CC[C@]2(O)C[C@H](CC)C(=O)C[C@@]2(C)[C@@H]4CC[C@@H]13 | inactive | Non-Toxic | inactive
11 | CC[C@H]1C[C@@]2(O)CC[C@@]34C[C@]35CC[C@H](NC)C(C)(C)[C@@H]5CC[C@H]4[C@]2(C)CC1=O | inactive | Non-Toxic | inactive
12 | CCC1=C[C@@]2(O)CC[C@@]34C[C@]35CC[C@H](NC)C(C)(C)[C@@H]5C=C[C@H]4[C@]2(C)CC1=O | inactive | Non-Toxic | inactive
13 | C=C1[C@@H](NC)CC[C@@]23C[C@]24CC=C2C=C(CC)C(=O)C[C@@]2(C)[C@@H]4CC[C@@H]13 | Active | Non-Toxic | –
14 | CCC1=C[C@H]2CC[C@@]34C[C@]35CC[C@H](NC)C(C)(C)[C@@H]5C[C@H](OC(C)=O)[C@H]4[C@]2(C)CC1=O | – | Non-Toxic | –
15 | C/C=C1/C(=O)C[C@@]2(C)[C@@H]3CC[C@H]4C(C)(C)[C@@H](NC)CC[C@]45C[C@@]35CC[C@]12C | Active | Non-Toxic | –
16 | CC[C@H]1C=C2CC[C@@]34C[C@]35CC[C@H](NC)C(C)(C)[C@@H]5C=C[C@H]4[C@]2(C)C[C@@H]1O | – | Non-Toxic | –
